{"source": "paper PMC8844826", "about": "(iScience, 2022)", "key": {"full length PSD-95 [1]": {"molecular_target": "T1, full length PSD-95 (Homo sapiens, UniProt P78352)", "T1 construct": "FL-PSD-95 (32M3C-PSD-95 FL 1-724); made in house; host or cells: E. coli BL21-DE3-pLysS", "T1 sequence (P78352 whole entry)": "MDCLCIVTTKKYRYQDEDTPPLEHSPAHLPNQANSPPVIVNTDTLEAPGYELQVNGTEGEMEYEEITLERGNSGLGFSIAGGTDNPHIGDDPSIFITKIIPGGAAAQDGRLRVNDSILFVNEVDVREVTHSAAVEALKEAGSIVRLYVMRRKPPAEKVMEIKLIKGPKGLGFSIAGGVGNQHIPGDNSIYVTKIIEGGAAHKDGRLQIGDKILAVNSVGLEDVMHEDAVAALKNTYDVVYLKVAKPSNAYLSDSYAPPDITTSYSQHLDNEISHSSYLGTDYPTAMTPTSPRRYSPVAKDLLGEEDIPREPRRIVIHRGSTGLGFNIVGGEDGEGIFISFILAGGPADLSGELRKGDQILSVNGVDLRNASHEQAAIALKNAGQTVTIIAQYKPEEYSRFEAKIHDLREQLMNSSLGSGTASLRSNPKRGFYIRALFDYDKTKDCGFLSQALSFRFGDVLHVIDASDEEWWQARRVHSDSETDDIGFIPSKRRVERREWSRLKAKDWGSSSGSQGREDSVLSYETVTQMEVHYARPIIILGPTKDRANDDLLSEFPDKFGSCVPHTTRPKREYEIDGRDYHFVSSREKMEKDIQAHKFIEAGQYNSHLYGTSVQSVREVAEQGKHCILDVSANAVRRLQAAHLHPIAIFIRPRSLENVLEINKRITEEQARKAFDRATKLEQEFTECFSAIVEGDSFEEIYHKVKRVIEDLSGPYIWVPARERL", "test": "competitive fluorescence polarization (FP) binding to full length PSD-95, tracer AB-143", "conditions": "Ki,app"}, "full length PSD-95 [2]": {"molecular_target": "T1, full length PSD-95", "test": "SDS-PAGE sedimentation assay with PSD-95", "format": "biochemical", "conditions": "SDS-PAGE sedimentation and quantification; n = 3", "experimental": "(§1) Proteins were all mixed in the desired concentration in PBS-TCEP and equilibrated for 10 min before centrifugation at 20,000 g for 15 min at 25°C using a temperature-controlled table top centrifuge. Following centrifugation, the supernatant was collected and the pellet was re-suspended in an equal amount of PBS-TCEP, usually 50 μL. To ensure proper suspension of LLPS samples were vortexed before addition of SDS buffer boiling at 95°C for 5 min. Supernatant and pellet fractions were run on any kD Mini-PROTEAN TGX Precast Protein Gels (10 or 15 wells, BioRad 4569036 or 4569033). Gels were imaged using a Li-COR Odyssey gel scanner and band intensities were analyzed using ImageJ. Significance was evaluated using one-way ANOVA with Dunnett post-test, one-way ANOVA with Tukey post-test or a two-way ANOVA with Dunnett post-test."}, "PSD-95": {"test_system": "PSD-95", "test": "confocal microscopy of LLPS droplets of fluorescently labeled PSD-95", "format": "biochemical, human", "conditions": "peptide 36 μM, Alexa 633-PSD-95 30 nM labeled/3 μM unlabeled, validated by SDS-PAGE sedimentation", "experimental": "(§2) Confocal microscopy was done using a Zeiss LSM780 using a 63x NA 1.4 plan apochromat oil objective using Argon 488 nm 25 mW, 543 nm HeNe 1.2 mW and 633 nm HeNe 5mW lasers using a detection wavelength of 490-538 nm for the 488 channel, 556-627 nm for the 543 channel, 636-758 for the 633 channel. Images were acquired using averaging of four line scans and 12-bit. The LLPS droplets were prepared in the desired concentration in PBS-TCEP at desired pH, mostly pH 7.4 unless stated otherwise, and added to an untreated lab tec (155411PK, Nunc, ThermoFischer) and imaged after being allowed to settle for 15 min at 25°C. For samples containing fluorescent protein or peptide the content of fluorescent protein or peptide was kept at 1-10% of indicated total protein or peptide concentration."}, "[3]": {"test_system": "ePSD (PSD-95, Homer3, Shank3, GKAP, SynGAP)", "test": "SDS-PAGE sedimentation assay with ePSD", "format": "biochemical", "conditions": "n = 3; for promotion of LLPS of ePSD: SDS-PAGE sedimentation and quantification, ePSD incubated with indicated peptides; for LLPS induction in the PSD-95 containing ePSD: peptide 10 μM and 100 μM", "experimental": "as §1"}, "ePSD": {"test_system": "ePSD", "test": "confocal microscopy of ePSD LLPS droplets", "format": "biochemical", "experimental": "as §2"}, "15N-PDZ1-2 of PSD-95": {"test_system": "15N-PDZ1-2 of PSD-95", "test": "1H-15N-HSQC NMR chemical shift perturbation", "format": "binding", "conditions": "512 μM StgA222-R236/128 μM 15N-PDZ1-2; 50 mM Tris pH 8, 200 mM NaCl, 1 mM TCEP, 25°C", "method": "All NMR spectra were recorded on 600 MHz or 750 MHz Bruker Avance III HD spectrometers equipped with QCI or TCI cryo-probes at 25°C in 50 mM Tris pH 8, 200 mM NaCl, 1 mM TCEP, 10% D2O and 250 μM DSS. Spectra were processed with NMRPipe ([Delaglio et al., 1995]) or qMDD ([Kazimierczuk and Orekhov, 2011]) if non-uniform sampling was used for the acquisition and analyzed using CCPNMR analysis ([Skinner et al., 2016]). Amide nitrogen and proton chemical shift assignments were kindly shared by Prof. […] Combined chemical shift perturbations were calculated between the unbound and the bound states using."}, "[4]": {"conditions": "SDS-PAGE sedimentation, ePSD 3 μM"}}, "note": "Peptide text beside a SMILES is read from it.", "data": [{"compound": "CC[C@H](C)[C@H](NC(=O)[C@H](CO)NC(=O)[C@H](CO)NC(=O)[C@H](CC(C)C)NC(=O)[C@H](CCCCN)NC(=O)[C@H](CCCN=C(N)N)NC(=O)[C@H](CCCN=C(N)N)NC(=O)[C@H](CCCN=C(N)N)NC(=O)[C@H](CCC(N)=O)NC(=O)[C@H](CCCN=C(N)N)NC(=O)[C@H](CCCN=C(N)N)NC(=O)[C@H](CCCCN)NC(=O)[C@H](CCCCN)NC(=O)[C@H](CCCN=C(N)N)NC(=O)CNC(=O)[C@@H](N)Cc1ccc(O)cc1)C(=O)N[C@@H](CCC(=O)O)C(=O)N[C@@H](CO)C(=O)N[C@@H](CC(=O)O)C(=O)N[C@H](C(=O)O)C(C)C", "note": "[NA-1] (H-YGRKKRRQRRRKLSSIESDV-OH)", "values": [{"measurement": "Ki", "setting": "full length PSD-95 [1]; pH 6.4, competitive FP, pH 6.4", "value": 7.2, "unit": "µM"}, {"measurement": "Ki", "setting": "full length PSD-95 [1]; pH 7.4, competitive FP, pH 7.4", "value": 4.5, "unit": "µM"}, {"measurement": "Ki", "setting": "full length PSD-95 [1]; pH 8.4, competitive FP, pH 8.4", "value": 2.6, "unit": "µM"}, {"measurement": "Ki", "setting": "full length PSD-95 [1]; pH 9.4, competitive FP, pH 9.4", "value": 4.1, "unit": "µM"}]}, {"compound": "CC[C@H](C)[C@H](NC(=O)[C@H](CO)NC(=O)[C@H](CO)NC(=O)[C@H](CC(C)C)NC(=O)[C@H](CCCCN)NC(=O)[C@H](CCCNC(=N)N)NC(=O)[C@H](CCCNC(=N)N)NC(=O)[C@H](CCCNC(=N)N)NC(=O)[C@H](CCC(N)=O)NC(=O)[C@H](CCCNC(=N)N)NC(=O)[C@H](CCCNC(=N)N)NC(=O)[C@H](CCCCN)NC(=O)[C@H](CCCCN)NC(=O)[C@H](CCCNC(=N)N)NC(=O)CNC(=O)[C@@H](N)Cc1ccc(O)cc1)C(=O)N[C@@H](CCC(=O)O)C(=O)N[C@@H](CO)C(=O)N[C@@H](CC(=O)O)C(=O)N[C@H](C(=O)O)C(C)C", "note": "[NA-1] (H-YGRKKRRQRRRKLSSIESDV-OH; N-terminus and C-terminus assumed)", "values": [{"measurement": "LLPS induction for PSD-95 alone by known inhibitors", "setting": "full length PSD-95 [2]", "value": "able"}, {"measurement": "pH below which LLPS of PSD-95 is induced", "setting": "PSD-95", "value": "below 7.4 pH"}, {"measurement": "promotion of LLPS of ePSD", "setting": "[3]", "value": "able to promote LLPS"}, {"measurement": "LLPS induction in the PSD-95 containing ePSD", "setting": "[3]; [4]", "value": "could induce LLPS"}, {"measurement": "LLPS once complexed with the ePSD", "setting": "ePSD", "value": "induces LLPS"}]}, {"compound": "YGRKKRRQRRR [TAT11]", "values": [{"measurement": "promotion of LLPS of ePSD", "setting": "[3]", "value": "able to promote LLPS"}, {"measurement": "LLPS induction of the ePSD", "setting": "[3]; SDS-PAGE sedimentation, peptide 10 μM, ePSD 3 μM", "value": "induced LLPS"}, {"measurement": "chemical shift perturbations in 1H-15N-HSQC", "setting": "15N-PDZ1-2 of PSD-95", "value": "did not result in any chemical shift perturbations"}]}, {"compound": "YGRKKRRQRRR-NPEG4-di-IETAA [AVLX-144-AA]", "values": [{"measurement": "effect on ePSD LLPS formation", "setting": "[3]; SDS-PAGE sedimentation, ePSD 3 μM, compared with AVLX-144", "value": "largely compromised the ability to drive LLPS"}]}, {"compound": "YGRKKRRQRRR-NPEG4-di-IETDV [AVLX-144]", "values": [{"measurement": "pH below which LLPS of PSD-95 is induced", "setting": "PSD-95", "value": "below 6.4 pH"}, {"measurement": "LLPS induction in the PSD-95 containing ePSD", "setting": "[3]; [4]", "value": "induced LLPS to a minor extent"}]}]}
